Laboratory results from patent US12168085B2, “Surgical system and methods of use” (priority 2021, dated 2024).

Columns and labels:
myofibroblast formation = settings: Ajmal et al. (2003); cited from earlier work
[1] = time to reach plasma concentrations; assay type: in vivo; settings: when given preoperatively

time to reach plasma concentrations [1] | SMILES | effect on myofibroblast formation (myofibroblast formation)
 | O=S(=O)([O-])CCS.[Na+] [MESNA, sodium 2-mercaptoethane sulfonate] | diminish myofibroblast formation
5 to 15 min | NC[C@H]1CC[C@H](C(=O)O)CC1 [tranexamic acid, trans-4-(aminomethyl)cyclohexanecarboxylic acid] | 
